Results reported in patent US20150175585A1, “FUSED QUINONIC COMPOUNDS” (CENTRO ATLANTICO DEL MEDICAMENTO S.A (CEAMED, S.A.), priority 2012, published 2015).

Legend:
[1] = system: STAT5; experiment: STAT5 phosphorylation western blot assay; format: cell-based, human; conditions: 10 microM, HEL or K562 cells (table does not say which)
Experimental: The Human Erythroleukemia cell line HEL and the human Chronic Myeloid Leukemia cell line K562 were cultured in RPM I 1640 medium containing 10% fetal bovine serum (FBS) and 50 U/ml penicillin/50 U/ml streptomycin at 37° C. in a 5% CO2 humidified atmosphere to a density of 300.000 viable cells/mL in presence of WP1066 (positive control of phosphorylation inhibition) (Verstovsek et al., 2008) or CM-363 at concentrations of 1, 5 and 10 μM. Cell culture reagents were all obtained from BioWhittaker® (Lonza, Verniers, Belgium). Cell growth and viability was determined by propidium iodide (fluorescent dye) exclusion method using the Accuchip 4× Counting Kit and the ADAM automatic cell counter (Digital-Bio, NanoEntek, Ic., Washington St, Mass., USA).As a control of unspecific phosphorylation, some cells in each experiment were exposed to vehicle (negative control of phosphorylation inhibition) (0.1% DMSO).
For total protein extraction, cells were scraped with RIPA 1× lysis buffer (25 mM Tris-HCl pH 7.6, 150 mM NaCl, 1% NP-40, 1% sodium deoxycholate, 0.1% SDS, no. 89900, Thermo Scientific, Rockford, Ill., USA) supplemented with 1× protease and 1× phosphatase inhibitor cocktails (100× Halt™ Protease Inhibitor Cocktail, no. 87786 and 100× Halt Phosphatase Inhibitor Cocktail, no. 78420, both from Thermo Scientific, Rockford, Ill., USA). An aliquot of each extract was preserved for protein quantification by bicinchoninic acid assay (Pierce® BCA Protein Assay Kit, no. 23225, Thermo Scientific, Rockford, Ill., USA).
Proteins were solubilized in sample buffer containing 0.0625 M Tris-HCl, pH 6.8, 2.3% (wt/vol) SDS, 10% (vol/vol) glycerol, 5% (vol/vol) f3-mercaptoethanol, and 0.001% (wt/vol) bromophenol blue and boiled at 95° C. for 5 min. Equal amounts (50 μg) of each sample were electrophoresed on 8-10% sodium dodecyl sulfate-polyacrylamide gel electrophoresis (SDS-PAGE) and transferred to nitrocellulose membranes (iBlot® Gel Transfer Stacks, Nitrocellulose, no. IB4010-02, Invitrogen, Barcelona, Spain) as described previously (Fernandez, L, et al., Endocrinology, 13, 1815-1824, 1998; B. Guerra et al., J. Neurochem, 91, 99-109, 2004; B. Guerra et al., J. Appl. Physiol., 102, 1786-1792, 2007; B. Guerra et al., J. Appl. Physiol., 111, 715-725, 2011). The nitrocellulose membranes were then removed from the iBlot® Dry GelTransfer Device (no. IB1001EU, Invitrogen, Barcelona, Spain) and placed in a Ponceau S staining solution (0.5% Ponceau S and 1% glacial acetic acid in water) to verify equal loading of protein in the control and treated samples. After the membranes were stained for 5 min, they were rinsed for 2 min and examined. Equal loading of protein was verified, and the membranes were rinsed for an additional 10 min and immunoscreened. Membranes were blocked with 5% blotting grade blocker nonfat dry milk in Tris Buffered Saline with 0.05% Tween 20 (TBST; blotto-blocking buffer) for at least […]) at room temperature. They were washed thrice in TBS with 0.1% Tween 20 (TBST-0.1). Next, the membranes were incubated over night at 4° C. with the appropriate anti-phospho-antibodies (described below) all diluted (1:1000) in 1% bovine serum albumin (BSA)-1% blotto in TBST (BSA-blotto blocking buffer). […] Membranes were stripped of bound antibodies by incubation in stripping buffer (Restore™ Western Blot Stripping Buffer, no. 21059, Thermo Scientific, Rockford, Ill., USA) at room temperature for 30 min with agitation. Membranes were washed for 3×10 min in TBST-0.1, blocked with blotto-blocking buffer for at least 1 h and re-probed with the corresponding anti-total kinase antibodies (described below) all diluted (1:1000) in blotto-blocking buffer. […]

[2] = system: HEL cells; experiment: HEL-based MTT cell viability assay; design: species or system human; conditions: Homo sapiens, 48 h, read-out: Activity (IC50, reduction of cell viability)
Experimental: Cell viability was assayed by measuring the mitochondrial reduction of the tetrazolium salt 3-(4,5-methyltiazol-2yl)-2,5diphenyl-tetrazolium bromide] (MTT) (Applichen; A2231,0010) (Mosmann T. J Immunol Methods. 1983 16; 65(1-2):55-63; Chuan Y-C et al 2010. Oncogene. 29 (10), 1531-1542. Cells were seeded in 96-well plates in medium supplemented with 10% FBS (Lonza Cat. No: 14-502F), 2 mM L-Glut (Lonza Cat. No: BE17-605E) and 100 U/ml PEST (Lonza Cat. No: DE17-605E) at a cell density of 5000-20000 cells/well. Cells were seeded at a density according to their exponential growth phase. Vehicle (0.05% DMSO) or drug were added to culture medium at the indicated concentrations (10 to 0.01 microM) during 48 h. Then, MTT (0.3 mg/ml) was added to cells following by incubation for 2-4 h at 37° C. in the dark. The medium was then discarded and the formazan precipitate was solubilized by addition of 20% SDS (Sigma; L-5750) in 0.02N HCl (Panreac; 131020.1611) for 12-16 h. The optical density was measured at 595 nm with the iMark Microplate Reader (BioRad, USA). Data was expressed as percent growth above the level in controls and the results in figures were plotted as means±SEM of each test point from 3 replicates.
Statistical analysis. The concentration of drug that provokes 50% reduction of cell viability (IC50) was determined by using non-linear regression analysis and data were fitted to a log concentration vs normalized response curve in GraphPad software v5 (San Diego, Calif.).

## N#Cc1ccc(C2C3=C(CCCC3=O)OC3=C2C(=O)c2ccccc2C3=O)cc1 (centres unmarked) [Compound 4, 4-(1,6,11-trioxo-2,3,4,6,11,12-hexahydro-1H-benzo[b]xanthen-12-yl)benzonitrile]
[1]
  Activity (inhibition of STAT5 phosphorylation): +++ (+++represents an inhibition at 10 microM > 75%)
[2]
  IC50: < 3000 nM
